Test results published in patent publication US12466800B2, “N-((1,2,3,5,6,7-hexahydro-S-indacen-4-yl)carbamoyl)-4, 5, 6, 7-tetrahydrobenzofuran-2-sulfonamide derivatives and related compounds as NLPR3 modulators for the treatment of multiple sclerosis (MS)” (Zomagen Biosciences Ltd, priority 2019, dated 2025).

tested on: IL-1b; experiment: Mouse BMDM IL-1b Assay; assay type: cell-based; settings: Macrophage; mouse bone marrow derived macrophages (C57BL6); 200 ng/mL LPS 3 h, compound 30 min, 5 mM ATP 45 min; IL-1b ELISA of supernatant
Experimental: Example 20: Mouse BMDM IL-1b Assay
Mouse bone marrow cells from C57BL6 tibia and femur were culture in complete Isocov's Media supplemented with 20 ng/mL MCSF (BMDM media) at a density of 50 million cells/15 cm Petri dish. Fresh media was changed every 3 days, and bone marrow derived macrophages were collected, washed, and counted on day 7. Cells were seeded into 96 well plates at a density of 5×10^4 cells per well in 100 uL of BMDM media and cultured overnight. The cells were stimulated at 37° C. with 200 ng/mL Ultrapure LPS-B5 for 3 hours before pre-diluted compounds were added. 30 minutes after compound addition, 5 mM ATP was added for the secondary stimulation for 45 minutes. After stimulation, the plates were briefly spun down, and 50 uL of supernatant was harvested from each well. ELISA for mouse IL-1b was performed with 1:10 and 1:100 diluted supernatant using pre-coated kits. IL-1b concentrations were calculated based on pre-titrated standards, and compound inhibition IC50 is generated using the Levenberg Marquardt damped lease-square method.

First: CC(=O)NC1CCCc2oc(S(=O)(=O)NC(=O)Nc3c4c(c(Br)c5c3CCC5)CCC4)cc21 (stereo not shown) [Compound 42, N-(2-(N-((8-bromo-1,2,3,5,6,7-hexahydro-s-indacen-4-yl)carbamoyl)sulfamoyl)-4,5,6,7-tetrahydrobenzofuran-4-yl)acetamide]
Second: O=C(Nc1c2c(c(F)c3c1CCC3)CCC2)NS(=O)(=O)c1cc2c(o1)CCCC2O (stereo not shown) [Compound 46, N-((8-fluoro-1,2,3,5,6,7-hexahydro-s-indacen-4-yl)carbamoyl)-4-hydroxy-4,5,6,7-tetrahydrobenzofuran-2-sulfonamide]
The IC50 of the first is higher: 100 to 1000 nM for the first, < 100 nM for the second. The second is the more potent here.

`O=C(Nc1c2c(cc3c1CCC3)CCC2)NS(=O)(=O)c1cc2c(s1)CCC/C2=N/O` [Compound 125, (Z)-N-((1,2,3,5,6,7-hexahydro-s-indacen-4-yl)carbamoyl)-4-(hydroxyimino)-4,5,6,7-tetrahydrobenzo[b]thiophene-2-sulfonamide] and `O=C(Nc1c2c(cc3c1CCC3)CCC2)NS(=O)(=O)c1cc2c(s1)CCCC2O` (stereo not shown) [Compound 124, N-((1,2,3,5,6,7-hexahydro-s-indacen-4-yl)carbamoyl)-4-hydroxy-4,5,6,7-tetrahydrobenzo[b]thiophene-2-sulfonamide] cannot be ordered by IC50: < 100 nM for the first, < 100 nM for the second.

`CC(C)c1cc(C#N)cc(C(C)C)c1NC(=O)NS(=O)(=O)c1cc2c(o1)CCCC2O` (stereo not shown) [Compound 71, N-((4-cyano-2,6-diisopropylphenyl)carbamoyl)-4-hydroxy-4,5,6,7-tetrahydrobenzofuran-2-sulfonamide] and `CC(C)c1cc(C#N)cc(C(C)C)c1NC(=O)NS(=O)(=O)c1cc2c(o1)CCCC2(C)O` (stereo not shown) [Compound 72, N-((4-cyano-2,6-diisopropylphenyl)carbamoyl)-4-hydroxy-4-methyl-4,5,6,7-tetrahydrobenzofuran-2-sulfonamide] fall in the same range of IC50: 100 to 1000 nM for the first, 100 to 1000 nM for the second.

First: CC(C)c1cc(F)cc(C(C)C)c1NC(=O)NS(=O)(=O)c1cc2c(o1)CCCCC2(C)O (stereo not shown) [Compound 121, N-((4-fluoro-2,6-diisopropylphenyl)carbamoyl)-4-hydroxy-4-methyl-5,6,7,8-tetrahydro-4H-cyclohepta[b]furan-2-sulfonamide]
Second: CC(C)c1cc(Cl)cc(C(C)C)c1NC(=O)NS(=O)(=O)c1cc2c(o1)CCCCC2(C)O (stereo not shown) [Compound 122, N-((4-chloro-2,6-diisopropylphenyl)carbamoyl)-4-hydroxy-4-methyl-5,6,7,8-tetrahydro-4H-cyclohepta[b]furan-2-sulfonamide]
The IC50 of the first is higher: 100 to 1000 nM for the first, < 100 nM for the second. The second is the more potent here.

First: O=C(Nc1c2c(c(Br)c3c1CCC3)CCC2)NS(=O)(=O)c1cc2c(o1)CCC/C2=N\O [Compound 95, (E)-N-((8-bromo-1,2,3,5,6,7-hexahydro-s-indacen-4-yl)carbamoyl)-4-(hydroxyimino)-4,5,6,7-tetrahydrobenzofuran-2-sulfonamide]
Second: O=C(Nc1c2c(c(F)c3c1CCC3)CCC2)NS(=O)(=O)c1cc2c(o1)CCC/C2=N/O [Compound 89, (Z)-N-((8-fluoro-1,2,3,5,6,7-hexahydro-s-indacen-4-yl)carbamoyl)-4-(hydroxyimino)-4,5,6,7-tetrahydrobenzofuran-2-sulfonamide]
The IC50 of the first is higher: 100 to 1000 nM for the first, < 100 nM for the second.

`CC1(C)CC(=O)c2cc(S(=O)(=O)NC(=O)Nc3c4c(cc5c3CCC5)CCC4)oc2C1` [Compound 21, N-((1,2,3,5,6,7-hexahydro-s-indacen-4-yl)carbamoyl)-6,6-dimethyl-4-oxo-4,5,6,7-tetrahydrobenzofuran-2-sulfonamide] and `O=C(Nc1c2c(cc3c1CCC3)CCC2)NS(=O)(=O)c1cc2c(o1)CCCC2=O` [Compound 6] fall in the same range of IC50: 100 to 1000 nM for the first, 100 to 1000 nM for the second.

`CC1(C)CCc2oc(S(=O)(=O)NC(=O)Nc3c4c(cc5c3CCC5)CCC4)cc2C1O` (stereo not shown) [Compound 14, N-((1,2,3,5,6,7-hexahydro-s-indacen-4-yl)carbamoyl)-4-hydroxy-5,5-dimethyl-4,5,6,7-tetrahydrobenzofuran-2-sulfonamide] and `CC1(C)Cc2oc(S(=O)(=O)NC(=O)Nc3c4c(cc5c3CCC5)CCC4)cc2C(C)(O)C1` (stereo not shown) [Compound 20, N-((1,2,3,5,6,7-hexahydro-s-indacen-4-yl)carbamoyl)-4-hydroxy-4,6,6-trimethyl-4,5,6,7-tetrahydrobenzofuran-2-sulfonamide] cannot be ordered by IC50: < 100 nM for the first, < 100 nM for the second.

`CC(C)c1ccc(F)c(C(C)C)c1NC(=O)NS(=O)(=O)c1cc2c(o1)CCCCC2O` (stereo not shown) [Compound 119, N-((3-fluoro-2,6-diisopropylphenyl)carbamoyl)-4-hydroxy-5,6,7,8-tetrahydro-4H-cyclohepta[b]furan-2-sulfonamide] and `CC(C)c1c(F)c(Cl)c(F)c(C(C)C)c1NC(=O)NS(=O)(=O)c1cc2c(o1)CCCC2O` (stereo not shown) [Compound 102, N-((4-chloro-3,5-difluoro-2,6-diisopropylphenyl)carbamoyl)-4-hydroxy-4,5,6,7-tetrahydrobenzofuran-2-sulfonamide] fall in the same range of IC50: 100 to 1000 nM for the first, 100 to 1000 nM for the second.

First: CC(C)C1Cc2oc(S(=O)(=O)NC(=O)Nc3c4c(cc5c3CCC5)CCC4)cc2C(C)(O)C1 (stereo not shown) [Compound 27, N-((1,2,3,5,6,7-hexahydro-s-indacen-4-yl)carbamoyl)-4-hydroxy-6-isopropyl-4-methyl-4,5,6,7-tetrahydrobenzofuran-2-sulfonamide]
Second: CC(C)C1Cc2oc(S(=O)(=O)NC(=O)Nc3c4c(cc5c3CCC5)CCC4)cc2C(O)C1 (stereo not shown) [Compound 28, N-((1,2,3,5,6,7-hexahydro-s-indacen-4-yl)carbamoyl)-4-hydroxy-6-isopropyl-4,5,6,7-tetrahydrobenzofuran-2-sulfonamide]
The IC50 of the first is lower: < 100 nM for the first, 100 to 1000 nM for the second. The first is the more potent here.

First: CC(C)c1c(F)c(Cl)c(F)c(C(C)C)c1NC(=O)NS(=O)(=O)c1cc2c(o1)CCC/C2=N\O [Compound 101, (E)-N-((4-chloro-3,5-difluoro-2,6-diisopropylphenyl)carbamoyl)-4-(hydroxyimino)-4,5,6,7-tetrahydrobenzofuran-2-sulfonamide]
Second: CC(C)c1c(F)c(Cl)c(F)c(C(C)C)c1NC(=O)NS(=O)(=O)c1cc2c(o1)CCC/C2=N/O [Compound 100, (Z)-N-((4-chloro-3,5-difluoro-2,6-diisopropylphenyl)carbamoyl)-4-(hydroxyimino)-4,5,6,7-tetrahydrobenzofuran-2-sulfonamide]
The IC50 of the first is lower: 100 to 1000 nM for the first, 1000 to 10000 nM for the second.

Compared with `CC(C)c1cc(F)cc(C(C)C)c1NC(=O)NS(=O)(=O)c1cc2c(o1)CCC/C2=N\O` [Compound 86, (E)-N-((4-fluoro-2,6-diisopropylphenyl)carbamoyl)-4-(hydroxyimino)-4,5,6,7-tetrahydrobenzofuran-2-sulfonamide], `CC(C)c1cc(F)cc(C(C)C)c1NC(=O)NS(=O)(=O)c1cc2c(o1)CCC/C2=N/O` [Compound 85, (Z)-N-((4-fluoro-2,6-diisopropylphenyl)carbamoyl)-4-(hydroxyimino)-4,5,6,7-tetrahydrobenzofuran-2-sulfonamide] is higher in IC50: 100 to 1000 nM for the first, 1000 to 10000 nM for the second. The first is the more potent here.

First: Cc1c(S(=O)(=O)NC(=O)Nc2c3c(cc4c2CCC4)CCC3)oc2c1/C(=N\O)CCC2 [Compound 99, (Z)-N-((1,2,3,5,6,7-hexahydro-s-indacen-4-yl)carbamoyl)-4-(hydroxyimino)-3-methyl-4,5,6,7-tetrahydrobenzofuran-2-sulfonamide]
Second: Cc1c(S(=O)(=O)NC(=O)Nc2c3c(cc4c2CCC4)CCC3)oc2c1C(C)(O)CCC2 (stereo not shown) [Compound 93, N-((1,2,3,5,6,7-hexahydro-s-indacen-4-yl)carbamoyl)-4-hydroxy-3,4-dimethyl-4,5,6,7-tetrahydrobenzofuran-2-sulfonamide]
The IC50 of the first is higher: 100 to 1000 nM for the first, < 100 nM for the second.

First: CC1CC(=NO)c2cc(S(=O)(=O)NC(=O)Nc3c4c(cc5c3CCC5)CCC4)oc2C1 (stereo not shown) [Compound 48, N-((1,2,3,5,6,7-hexahydro-s-indacen-4-yl)carbamoyl)-4-(hydroxyimino)-6-methyl-4,5,6,7-tetrahydrobenzofuran-2-sulfonamide]
Second: C=CCC1(O)c2cc(S(=O)(=O)NC(=O)Nc3c4c(cc5c3CCC5)CCC4)oc2CCC1(C)C (stereo not shown) [Compound 88, 4-allyl-N-((1,2,3,5,6,7-hexahydro-s-indacen-4-yl)carbamoyl)-4-hydroxy-5,5-dimethyl-4,5,6,7-tetrahydrobenzofuran-2-sulfonamide]
The IC50 of the first is higher: 100 to 1000 nM for the first, < 100 nM for the second. The second is the more potent here.

First: O=C(O)CCC1(O)CCCc2oc(S(=O)(=O)NC(=O)Nc3c4c(cc5c3CCC5)CCC4)cc21 (stereo not shown) [Compound 126, 3-(2-(N-((1,2,3,5,6,7-hexahydro-s-indacen-4-yl)carbamoyl)sulfamoyl)-4-hydroxy-4,5,6,7-tetrahydrobenzofuran-4-yl)propanoic acid]
Second: CC1(O)CCCc2oc(S(=O)(=O)NC(=O)Nc3c4c(c(Cl)c5c3CCC5)CCC4)cc21 (stereo not shown) [Compound 44, N-((8-chloro-1,2,3,5,6,7-hexahydro-s-indacen-4-yl)carbamoyl)-4-hydroxy-4-methyl-4,5,6,7-tetrahydrobenzofuran-2-sulfonamide]
The IC50 of the first is higher: 100 to 1000 nM for the first, < 100 nM for the second.

Compared with `N#Cc1c2c(c(NC(=O)NS(=O)(=O)c3cc4c(o3)CCCC4O)c3c1CCC3)CCC2` (stereo not shown) [Compound 54, N-((8-cyano-1,2,3,5,6,7-hexahydro-s-indacen-4-yl)carbamoyl)-4-hydroxy-4,5,6,7-tetrahydrobenzofuran-2-sulfonamide], `CC(C)c1cc(Cl)cc(C(C)C)c1NC(=O)NS(=O)(=O)c1cc2c(o1)CCCC2(C)O` (stereo not shown) [Compound 62, N-((4-chloro-2,6-diisopropylphenyl)carbamoyl)-4-hydroxy-4-methyl-4,5,6,7-tetrahydrobenzofuran-2-sulfonamide] is lower in IC50: 100 to 1000 nM for the first, < 100 nM for the second. The second is the more potent here.

Compound `CC(C)c1cccc(C(C)C)c1NC(=O)NS(=O)(=O)c1cc2c(o1)CCCC2(C)O` (stereo not shown) [Compound 60, N-((2,6-diisopropylphenyl)carbamoyl)-4-hydroxy-4-methyl-4,5,6,7-tetrahydrobenzofuran-2-sulfonamide] has an IC50 of 100 to 1000 nM.
